Results from US5962284A, “Acrylamidase enzymes” (Ciba Specialty Chemicals Water Treatments Limited, priority 1997, dated 1999).

How the values were obtained:
[1] = test system: acrylamidase produced by Rhodococcus erythropolis NCIMB 40889; test: Adipic acid activity assay (amidase activity at pH 4 with added adipic acid); type: biochemical; settings: pH 4, 50 mM acrylamide, 30° C.
Text: (§1) For measurement of Km (see below) the same conditions can be used, except that the acrylamide concentration is of course varied. One unit (U) of amidase activity hydrolyses 1 micromole of acrylamido per minute under the above conditions. The specific activity is the amount of units of activity present per dry gram of cell material. The relative activity is the % activity relative to activity at ph 7.
In this specification, comparison of acrylamidase activity in the presence of adipic acid and in the absence of adipic acid is measured by the following adipic acid activity assay:
To an assay mixture at pH 4 as described for measurement of activity at pH 4 and pH 7 is added adipic acid to give the concentrations required. Cell suspension is then added to the assay mixture. The amidase activity of each suspension is then measured. The relative activity is % activity relative to activity in the absence of adipic acid.

[2] = test system: acrylamidase produced by Rhodococcus species NCIMB 40755; settings: read-out: Km for acrylamide; pH 4.0, 30° C., cell suspension
Text: as §1
(§2) In this specification, Km is Km for acrylamide measured at pH 4.0.

[3] = test system: acrylamidase produced by Rhodococcus erythropolis NCIMB 40889; settings: read-out: Km for acrylamide; pH 4.0, 30° C., cell suspension
Text: as §1, §2

SMILES | Relative Activity (%) relative to activity in the absence of adipic acid ([1]; 5 mM adipic acid) [%] | Relative Activity (%) relative to activity in the absence of adipic acid ([1]; 10 mM adipic acid) [%] | Relative Activity (%) relative to activity in the absence of adipic acid ([1]; 15 mM adipic acid) [%] | Relative Activity (%) relative to activity in the absence of adipic acid ([1]; 22.5 mM adipic acid) [%] | Relative Activity (%) relative to activity in the absence of adipic acid ([1]; 25 mM adipic acid) [%] | Relative Activity (%) relative to activity in the absence of adipic acid ([1]; 50 mM adipic acid) [%] | Km [2] [mM] | Km [3] [mM]
O=C(O)CCCCC(=O)O [Adipic Acid, adipic acid] | 95 | 69 | 38 | 30 | 29 | 12 |  | 
C=CC(N)=O [acrylamide] |  |  |  |  |  |  | 6 | 11.6
